Test results reported in ChEMBL document CHEMBL1828619, “Identification of pyridazin-3-one derivatives as potent, selective histamine H₃ receptor inverse agonists with robust wake activity” (Bioorg Med Chem Lett, 2011).
Active and inactive are the calls of the source. The rule behind the calls is not given here.

What was measured:
[1] = target: Histamine H3 receptor (Rattus norvegicus, UniProt Q9QYN8); test: Displacement of [3H]NAMH from rat cloned histamine 3 receptor expressed in CHO cells; assay type: cell-based
Sequence of Histamine H3 receptor (Rattus norvegicus, UniProt Q9QYN8) (Q9QYN8 whole entry): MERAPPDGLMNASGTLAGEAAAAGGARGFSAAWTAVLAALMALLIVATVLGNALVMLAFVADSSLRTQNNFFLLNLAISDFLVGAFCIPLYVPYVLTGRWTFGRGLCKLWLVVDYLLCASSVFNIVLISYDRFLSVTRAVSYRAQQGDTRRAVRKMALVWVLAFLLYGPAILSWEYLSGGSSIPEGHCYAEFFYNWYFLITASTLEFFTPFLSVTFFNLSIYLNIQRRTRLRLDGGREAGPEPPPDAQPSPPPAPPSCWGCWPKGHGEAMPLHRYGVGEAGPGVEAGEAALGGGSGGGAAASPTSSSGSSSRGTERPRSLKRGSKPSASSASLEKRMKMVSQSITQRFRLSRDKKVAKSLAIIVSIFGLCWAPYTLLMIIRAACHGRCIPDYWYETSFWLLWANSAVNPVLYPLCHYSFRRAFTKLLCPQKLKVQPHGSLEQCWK

[2] = target: T1, Histamine H3 receptor (Homo sapiens, UniProt Q9Y5N1); test: Displacement of [3H]NAMH from human cloned histamine 3 receptor expressed in CHO cells; assay type: cell-based
T1 sequence (Q9Y5N1 whole entry): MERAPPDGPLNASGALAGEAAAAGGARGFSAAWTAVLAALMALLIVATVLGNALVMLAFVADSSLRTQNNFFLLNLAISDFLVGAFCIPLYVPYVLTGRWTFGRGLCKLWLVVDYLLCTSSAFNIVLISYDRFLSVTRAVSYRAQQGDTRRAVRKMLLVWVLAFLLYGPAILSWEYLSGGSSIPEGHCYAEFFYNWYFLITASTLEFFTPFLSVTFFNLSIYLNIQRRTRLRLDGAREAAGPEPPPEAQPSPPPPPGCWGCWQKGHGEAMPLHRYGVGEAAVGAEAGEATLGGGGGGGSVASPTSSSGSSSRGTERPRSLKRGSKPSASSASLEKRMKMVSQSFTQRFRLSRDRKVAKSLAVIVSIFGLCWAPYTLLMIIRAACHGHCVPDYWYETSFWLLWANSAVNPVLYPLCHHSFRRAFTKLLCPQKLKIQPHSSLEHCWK

[3] = Ratio of drug level in brain to plasma in iv dosed rat; assay type: ADME, organism-based; conditions: read-out: BPR
[4] = Oral bioavailability in rat; assay type: ADME, organism-based; conditions: in vivo
[5] = Half life in rat liver microsomes; assay type: ADME, Microsome
[6] = target: Histamine H1 receptor (Homo sapiens) (UniProt P35367); test: Inhibition of human histamine H1 receptor at 10 uM
Sequence of Histamine H1 receptor (Homo sapiens) (P35367 whole entry): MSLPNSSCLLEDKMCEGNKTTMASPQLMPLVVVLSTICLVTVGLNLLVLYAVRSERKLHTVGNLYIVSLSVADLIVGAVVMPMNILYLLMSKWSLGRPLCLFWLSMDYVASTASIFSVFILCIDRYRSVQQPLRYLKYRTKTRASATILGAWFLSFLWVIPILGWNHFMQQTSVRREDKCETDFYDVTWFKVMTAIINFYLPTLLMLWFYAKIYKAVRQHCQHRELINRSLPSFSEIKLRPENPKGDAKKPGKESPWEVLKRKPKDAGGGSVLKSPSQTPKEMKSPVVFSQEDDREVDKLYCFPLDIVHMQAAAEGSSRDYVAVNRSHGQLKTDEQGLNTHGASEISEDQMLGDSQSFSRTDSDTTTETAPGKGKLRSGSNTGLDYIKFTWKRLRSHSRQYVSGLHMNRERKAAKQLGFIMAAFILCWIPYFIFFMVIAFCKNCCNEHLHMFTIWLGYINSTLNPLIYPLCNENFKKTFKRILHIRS

[7] = target: Cytochrome P450 3A4 (Homo sapiens, UniProt P08684); test: Inhibition of CYP3A4; assay type: ADME
Sequence of Cytochrome P450 3A4 (P08684 whole entry): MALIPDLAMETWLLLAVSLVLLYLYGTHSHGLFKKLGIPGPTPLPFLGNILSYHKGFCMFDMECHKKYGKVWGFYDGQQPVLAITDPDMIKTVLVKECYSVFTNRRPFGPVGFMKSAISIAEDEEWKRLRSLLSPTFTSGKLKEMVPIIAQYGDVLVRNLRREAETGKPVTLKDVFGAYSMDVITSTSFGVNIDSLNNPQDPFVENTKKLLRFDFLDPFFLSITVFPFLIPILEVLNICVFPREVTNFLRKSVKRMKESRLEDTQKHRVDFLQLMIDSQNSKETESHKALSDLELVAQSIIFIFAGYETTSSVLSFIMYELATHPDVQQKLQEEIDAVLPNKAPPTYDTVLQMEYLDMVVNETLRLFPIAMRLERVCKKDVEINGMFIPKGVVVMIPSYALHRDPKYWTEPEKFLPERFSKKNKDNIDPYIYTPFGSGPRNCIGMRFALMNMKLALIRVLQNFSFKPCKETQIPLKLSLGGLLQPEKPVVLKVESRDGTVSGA

[8] = Half life in dog liver microsomes; assay type: ADME, Canis lupus familiaris, Microsome
[9] = Solubility of the compound at pH 7.4; assay type: physicochemical; conditions: buffer
[10] = target: Sodium-dependent noradrenaline transporter (Homo sapiens) (UniProt P23975); test: Inhibition of NET at 10 uM
Sequence of Sodium-dependent noradrenaline transporter (Homo sapiens) (P23975 whole entry): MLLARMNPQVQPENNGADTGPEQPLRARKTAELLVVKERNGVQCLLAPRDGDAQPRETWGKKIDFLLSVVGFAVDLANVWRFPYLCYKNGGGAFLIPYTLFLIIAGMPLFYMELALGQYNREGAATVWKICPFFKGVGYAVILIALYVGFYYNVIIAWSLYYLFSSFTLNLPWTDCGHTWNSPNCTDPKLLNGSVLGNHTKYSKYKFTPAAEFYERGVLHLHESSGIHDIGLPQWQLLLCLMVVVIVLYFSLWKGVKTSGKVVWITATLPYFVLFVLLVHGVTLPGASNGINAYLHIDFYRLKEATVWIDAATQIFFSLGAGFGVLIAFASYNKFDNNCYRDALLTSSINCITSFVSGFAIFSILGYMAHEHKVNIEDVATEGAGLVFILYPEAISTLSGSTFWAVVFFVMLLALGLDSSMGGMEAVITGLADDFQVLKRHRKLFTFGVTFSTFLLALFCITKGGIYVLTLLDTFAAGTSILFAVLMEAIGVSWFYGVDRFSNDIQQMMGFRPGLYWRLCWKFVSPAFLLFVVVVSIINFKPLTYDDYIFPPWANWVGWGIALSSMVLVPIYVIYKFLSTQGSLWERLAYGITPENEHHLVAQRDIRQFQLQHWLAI

[11] = test system: Rattus norvegicus; test: Induction of wake promoting activity in ip dosed EEG/EMG Sprague-Dawley rat model assessed as increase in waking time after 4 hrs; assay type: functional, organism-based
[12] = target: T1, Histamine H3 receptor; test: Inverse activity against human histamine 3 receptor by [35S]GTPgammaS binding assay; assay type: functional
[13] = Clearance in rat at 1 mg/kg, iv after 6 hrs; assay type: ADME, organism-based; set-up: dose 1 mg/kg, route intravenous; conditions: in vivo
[14] = Ratio of drug level in brain to plasma in rat at 5 mg/kg, po; assay type: ADME, organism-based; set-up: dose 5 mg/kg, route oral; conditions: read-out: BPR
[15] = Cmax in rat at 5 mg/kg, po after 6 hrs; assay type: ADME, organism-based; set-up: dose 5 mg/kg, route oral; conditions: in vivo
[16] = target: Cytochrome P450 2C19 (Homo sapiens, UniProt P33261); test: Inhibition of CYP2C19; assay type: ADME
Sequence of Cytochrome P450 2C19 (P33261 whole entry): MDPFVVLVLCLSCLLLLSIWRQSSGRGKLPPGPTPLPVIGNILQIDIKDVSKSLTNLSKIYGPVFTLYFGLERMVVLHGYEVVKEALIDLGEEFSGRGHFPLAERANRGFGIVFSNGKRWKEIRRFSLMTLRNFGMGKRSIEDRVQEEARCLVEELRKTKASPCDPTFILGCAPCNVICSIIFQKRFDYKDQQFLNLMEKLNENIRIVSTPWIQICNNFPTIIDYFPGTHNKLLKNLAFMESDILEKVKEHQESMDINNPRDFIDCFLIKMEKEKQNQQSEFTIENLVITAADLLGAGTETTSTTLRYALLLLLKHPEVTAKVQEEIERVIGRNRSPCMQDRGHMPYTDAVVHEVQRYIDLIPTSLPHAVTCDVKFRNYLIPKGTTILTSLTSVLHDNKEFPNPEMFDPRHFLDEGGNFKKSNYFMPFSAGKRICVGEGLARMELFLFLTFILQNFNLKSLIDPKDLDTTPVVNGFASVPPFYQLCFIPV

[17] = test system: Rattus norvegicus; test: Inhibition of (R)-alpha-methyl histamine-induced dipsogenia in ip dosed rat; assay type: functional
[18] = test system: Rattus norvegicus; test: Induction of wake promoting activity in EEG/EMG Sprague-Dawley rat model assessed as increase in waking time at 30 mg/kg, ip after 4 hrs; assay type: functional; conditions: route intraperitoneal
[19] = test system: Rattus norvegicus; test: Induction of wake promoting activity in EEG/EMG Sprague-Dawley rat model assessed as increase in waking time at 10 mg/kg, ip after 4 hrs; assay type: functional; conditions: route intraperitoneal
[20] = Half life in rat at 1 mg/kg, iv after 6 hrs; assay type: ADME, organism-based; set-up: dose 1 mg/kg, route intravenous; conditions: in vivo
[21] = target: T2, Cytochrome P450 1A2 (Homo sapiens, UniProt P05177); test: Inhibition of CYP1A2; assay type: ADME
T2 sequence (P05177 whole entry): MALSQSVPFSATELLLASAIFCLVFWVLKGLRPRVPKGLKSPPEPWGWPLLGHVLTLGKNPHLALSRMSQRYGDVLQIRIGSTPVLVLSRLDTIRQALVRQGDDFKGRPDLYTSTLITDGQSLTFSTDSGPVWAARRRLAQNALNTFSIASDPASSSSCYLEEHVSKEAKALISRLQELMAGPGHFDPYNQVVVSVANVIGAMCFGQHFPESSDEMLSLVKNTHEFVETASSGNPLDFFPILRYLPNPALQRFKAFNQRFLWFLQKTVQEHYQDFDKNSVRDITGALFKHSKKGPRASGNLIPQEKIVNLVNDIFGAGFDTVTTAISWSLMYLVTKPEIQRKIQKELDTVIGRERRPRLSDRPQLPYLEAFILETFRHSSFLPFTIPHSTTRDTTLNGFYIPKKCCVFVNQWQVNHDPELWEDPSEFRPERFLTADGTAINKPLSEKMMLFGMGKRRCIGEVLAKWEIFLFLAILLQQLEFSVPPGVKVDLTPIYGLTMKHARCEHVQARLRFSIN

[22] = target: T1, Histamine H3 receptor; test: Antagonist activity at human histamine 3 receptor by [35S]GTPgammaS binding assay; assay type: functional
[23] = AUC (0 to 6 hrs) in rat at 5 mg/kg, po; assay type: ADME, organism-based; set-up: time < 6 hr, dose 5 mg/kg, route oral; conditions: plasma
[24] = Half life in mouse liver microsomes; assay type: ADME, Microsome
[25] = target: Cytochrome P450 2D6 (Homo sapiens, UniProt P10635); test: Inhibition of CYP2D6; assay type: ADME
Sequence of Cytochrome P450 2D6 (P10635 whole entry): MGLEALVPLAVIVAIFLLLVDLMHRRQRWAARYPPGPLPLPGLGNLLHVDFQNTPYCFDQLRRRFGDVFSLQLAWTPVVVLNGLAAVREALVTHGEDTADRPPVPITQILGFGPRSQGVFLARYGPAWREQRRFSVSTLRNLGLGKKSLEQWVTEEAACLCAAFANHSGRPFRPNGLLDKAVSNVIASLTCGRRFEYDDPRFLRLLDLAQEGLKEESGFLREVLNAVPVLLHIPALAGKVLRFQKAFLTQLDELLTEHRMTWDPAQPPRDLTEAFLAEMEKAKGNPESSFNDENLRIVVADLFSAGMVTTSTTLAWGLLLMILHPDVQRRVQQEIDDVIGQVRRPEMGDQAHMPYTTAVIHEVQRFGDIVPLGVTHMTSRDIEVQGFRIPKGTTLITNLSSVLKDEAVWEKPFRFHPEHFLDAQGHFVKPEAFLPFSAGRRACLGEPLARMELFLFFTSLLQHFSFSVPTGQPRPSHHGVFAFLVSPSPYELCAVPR

[26] = Half life in rat at 5 mg/kg, po after 6 hrs; assay type: ADME, organism-based; set-up: dose 5 mg/kg, route oral; conditions: in vivo
[27] = target: Cytochrome P450 2C9 (Homo sapiens, UniProt P11712); test: Inhibition of CYP2C9; assay type: ADME
Sequence of Cytochrome P450 2C9 (P11712 whole entry): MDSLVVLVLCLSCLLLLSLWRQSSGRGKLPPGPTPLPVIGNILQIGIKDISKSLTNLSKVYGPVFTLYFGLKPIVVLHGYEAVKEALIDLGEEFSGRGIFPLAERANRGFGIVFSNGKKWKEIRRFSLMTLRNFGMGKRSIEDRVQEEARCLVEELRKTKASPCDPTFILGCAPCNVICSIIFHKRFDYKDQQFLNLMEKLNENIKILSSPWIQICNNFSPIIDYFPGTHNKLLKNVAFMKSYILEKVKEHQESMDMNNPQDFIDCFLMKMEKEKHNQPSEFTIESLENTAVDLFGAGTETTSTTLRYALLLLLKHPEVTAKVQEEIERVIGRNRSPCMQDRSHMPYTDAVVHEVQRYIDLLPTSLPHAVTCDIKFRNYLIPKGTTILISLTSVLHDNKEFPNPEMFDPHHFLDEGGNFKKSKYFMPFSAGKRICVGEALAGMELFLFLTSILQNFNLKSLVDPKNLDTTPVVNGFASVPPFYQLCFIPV

[28] = Half life in human liver microsomes; assay type: ADME, Microsome
[29] = target: Histamine H2 receptor (Homo sapiens) (UniProt P25021); test: Inhibition of human histamine H2 receptor at 10 uM
Sequence of Histamine H2 receptor (Homo sapiens) (P25021 whole entry): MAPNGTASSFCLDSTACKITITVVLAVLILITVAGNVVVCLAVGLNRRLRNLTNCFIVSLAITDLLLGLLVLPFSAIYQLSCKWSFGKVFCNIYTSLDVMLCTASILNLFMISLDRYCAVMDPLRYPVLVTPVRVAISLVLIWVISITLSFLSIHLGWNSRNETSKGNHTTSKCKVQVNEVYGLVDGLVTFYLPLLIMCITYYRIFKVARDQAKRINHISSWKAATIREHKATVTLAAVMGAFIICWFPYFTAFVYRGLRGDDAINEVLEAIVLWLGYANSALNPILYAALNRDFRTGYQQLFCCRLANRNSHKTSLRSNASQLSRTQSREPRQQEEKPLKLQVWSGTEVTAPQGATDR

[30] = Half life in monkey liver microsomes; assay type: ADME, Macaca mulatta, Microsome; conditions: rhesus monkey
[31] = Solubility of the compound at pH 2; assay type: physicochemical; conditions: buffer
[32] = Oral bioavailability in rat at 5 mg/kg after 6 hrs; assay type: ADME, organism-based; conditions: in vivo
[33] = Volume of distribution in rat at 1 mg/kg, iv after 6 hrs; assay type: ADME, organism-based; set-up: dose 1 mg/kg, route intravenous; conditions: in vivo
[34] = target: Histamine H4 receptor (Homo sapiens) (UniProt Q9H3N8); test: Inhibition of human histamine H4 receptor at 10 uM
Sequence of Histamine H4 receptor (Homo sapiens) (Q9H3N8 whole entry): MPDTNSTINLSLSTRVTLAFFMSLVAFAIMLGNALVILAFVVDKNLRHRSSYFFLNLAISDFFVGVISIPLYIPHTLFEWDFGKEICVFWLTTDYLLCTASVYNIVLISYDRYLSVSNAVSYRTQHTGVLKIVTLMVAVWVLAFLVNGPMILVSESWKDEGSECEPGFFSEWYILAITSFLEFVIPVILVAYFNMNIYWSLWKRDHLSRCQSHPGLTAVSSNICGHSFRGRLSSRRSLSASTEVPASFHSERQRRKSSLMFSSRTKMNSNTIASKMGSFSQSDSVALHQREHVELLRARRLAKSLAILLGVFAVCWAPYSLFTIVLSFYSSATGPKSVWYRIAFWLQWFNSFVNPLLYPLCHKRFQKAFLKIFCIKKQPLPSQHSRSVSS

[35] = test system: Rattus norvegicus; test: Induction of wake promoting activity in EEG/EMG Sprague-Dawley rat model assessed as increase in waking time at 3 mg/kg, ip after 4 hrs; assay type: functional; conditions: route intraperitoneal
[36] = test system: Rattus norvegicus; test: Induction of wake promoting activity in EEG/EMG Sprague-Dawley rat model assessed as increase in waking time at 10 mg/kg, ip after 7 hrs; assay type: functional; conditions: route intraperitoneal

C[C@@H]1CCCN1CCCOc1ccc(-c2ccc(=O)n(CCF)n2)cc1
Ki [1]: 0.011 µM | Ki [2]: 0.0034 µM

C[C@@H]1CCCN1CCCOc1ccc(-c2ccc(=O)[nH]n2)cc1C#N
Ki [1]: 0.111 µM | Ki [2]: 0.038 µM

C[C@@H]1CCCN1CCCOc1c(F)cc(-c2ccc(=O)[nH]n2)cc1F
Ki [1]: 0.04 µM | Ki [2]: 0.0071 µM

C[C@@H]1CCCN1CCCOc1ccc(-c2n[nH]c(=O)cc2-c2ccccn2)cc1
Ki [1]: 0.07 µM | Ki [2]: 0.012 µM | Kp [3]: < 1 | bioavailability [4]: < 10%

Cc1cc(=O)[nH]nc1-c1ccc(OCCCN2CCC[C@H]2C)cc1
Ki [1]: 0.012 µM | Ki [2]: 0.0029 µM

C[C@@H]1CCCN1CCCOc1ccc(-c2ccc(=O)n(C)n2)cc1F
half-life [5]: > 40 min | inhibition [6]: < 30% | IC50 [7]: > 30 µM | half-life [8]: > 40 min | solubility [9]: > 0.25 mg/mL | inhibition [10]: > 70% | Activity [11]: Dose-dependent effect | Activity [12]: Active | clearance [13]: 2.28 L/h/kg | Kp [14]: 3.4 | Ki [1]: 0.027 µM | Cmax [15]: 0.284 µg/mL | IC50 [16]: > 30 µM | ED50 [17]: 0.13 mg/kg | inhibition [17]: Dose-dependent effect | Time [18]: 184 min | Time [19]: 157 min | Ki [2]: 0.0058 µM | half-life [20]: 72 min | IC50 [21]: > 30 µM | EC50 [22]: 0.0013 µM | AUC(0-t) at 6 h [23]: 0.936 µg·h/mL | half-life [24]: > 40 min | IC50 [25]: > 30 µM | half-life [26]: 96 min | IC50 [27]: > 30 µM | half-life [28]: > 40 min | inhibition [29]: < 30% | half-life [30]: > 40 min | solubility [31]: > 0.25 mg/mL | bioavailability [32]: 42% | Vd [33]: 4.5 L/kg | inhibition [34]: < 30%

Cc1cc(-c2ccc(OCCCN3CCC[C@H]3C)cc2)n[nH]c1=O
Ki [1]: 0.0087 µM | Ki [2]: 0.0034 µM

C[C@H](COc1ccc(-c2ccc(=O)n(C)n2)cc1)CN1CCC[C@H]1C
Time [35]: 166 min | half-life [5]: > 40 min | IC50 [7]: > 30 µM | half-life [8]: > 40 min | solubility [9]: > 0.25 mg/mL | inhibition [10]: 19% | Activity [12]: Active | clearance [13]: 2.22 L/h/kg | Kp [14]: 2.5 | Ki [1]: 0.0046 µM | Cmax [15]: 0.146 µg/mL | IC50 [16]: > 30 µM | ED50 [17]: 0.02 mg/kg | inhibition [17]: Dose-dependent effect | Time [36]: 196 min | Time [19]: 231 min | Ki [2]: 0.0024 µM | half-life [20]: 48 min | IC50 [21]: > 30 µM | EC50 [22]: 0.0021 µM | AUC(0-t) at 6 h [23]: 0.892 µg·h/mL | half-life [24]: > 40 min | IC50 [25]: > 30 µM | half-life [26]: 258 min | IC50 [27]: > 30 µM | half-life [28]: > 40 min | half-life [30]: > 40 min | solubility [31]: > 0.25 mg/mL | bioavailability [32]: 38% | Vd [33]: 2.5 L/kg

C[C@@H]1CCCN1CCCOc1ccc(-c2ccc(=O)[nH]n2)cn1
Ki [1]: 0.07 µM | Ki [2]: 0.035 µM

C[C@@H]1CCCN1CCCOc1ccc(-c2ccc(=O)n(CC(F)(F)F)n2)cc1
Ki [1]: 0.011 µM | Ki [2]: 0.0057 µM
